The values that follow come from patent publication US20100298302A1, “NOVEL PROTEIN KINASE MODULATORS” (priority 2009, published 2010).

Molecules are shown by their SMILES. Read-outs that look alike come from different tables or passages of the source.

In assay [1] the test system is MV-4-11. In words: Alamar Blue cell proliferation assay, MV-4-11. Type of assay: cell-based. The following applies: Homo sapiens, MV4-11. In outline:
(§1)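 Cells were seeded at 4,000–5,000/well and exposed to compound dilutions for 4 days at 37 °C, 5% CO2, humidified. Alamar Blue was added for 4 h, with fluorescence read at 544 nm excitation and 590 nm emission. Controls were untreated cells and medium-only wells.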
On the technique in general: Alamar Blue is a resazurin reagent that responds to reducing activity.

For assay [2], the system named is K-562 human chronic myelogenous leukemia (CML) cells. The assay can be described thus: Alamar Blue cell proliferation assay, K-562. Type of assay: cell-based. In outline:
as §1

The test system of assay [3] is MDA-MB231 human breast cancer cells. In words: Alamar Blue cell proliferation assay, MDA-MB231. The following applies: MDA-MB-231, read-out: MDAMB231 IC50. Type of assay: cell-based. As to the method:
(§2) A representative cell-proliferation assay protocol using Alamar Blue dye (stored at 4° C., use 20 ul per well) is described hereafter.
(§3) a. Split and trypsinize cells.
(§4) b. Count cells using hemocytometer.
(§5) c. Plate 4,000-5,000 cells per well in 100 μl of medium and seed into a 96-well plate according to the following plate layout. Add cell culture medium only to wells B10 to B12. Wells B1 to B9 have cells but no compound added.
(§6) d. Add 100 μl of 2× drug dilution to each well in a concentration shown in the plate layout above. At the same time, add 100 μl of media into the control wells (wells B10 to B12). Total volume is 200 μl/well.
(§7) e. Incubate four (4) days at 37° C., 5% CO2 in a humidified incubator.
(§8) f. Add 20 μl Alamar Blue reagent to each well.
(§9) g. Incubate for four (4) hours at 37° C., 5% CO2 in a humidified incubator.
(§10) h. Record fluorescence at an excitation wavelength of 544 nm and emission wavelength of 590 nm using a microplate reader.
(§11) In the assays, cells are cultured with a test compound for approximately four days, the dye is then added to the cells and fluorescence of […] dye is detected after approximately four hours. Different types of cells can be utilized in the assays (e.g., HCT-116 human colorectal carcinoma cells, PC-3 human prostatic cancer cells, MDA-MB231 human breast cancer cells, K-562 human chronic myelogenous leukemia (CML) cells, MiaPaca human pancreatic carcinoma cells, MV-4 human acute myeloid leukemia cells, and BxPC3 human pancreatic adenocarcinoma cells).

Assay [4] has as its target recombinant PIM-1 (Homo sapiens, UniProt P11309). In words: PIM-1 kinase assay. Type of assay: biochemical. The note with it: for inhibition at 0.5 µM: 500 nM compound, read-out: PIM1: % inh 500 nM. Put shortly:
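Recombinant PIM-1 (1 ng) with 100 uM KKRNRTLTK peptide, 15 uM ATP plus [γ-33P]ATP, 10 mM Mg acetate, MOPS pH 7.0, 4% DMSO. Reaction 40 min at 23° C, quenched with phosphoric acid; labeled peptide captured on phosphocellulose filters and counted by scintillation.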

The subject of assay [5] is MiaPaca human pancreatic carcinoma cells. In words: Alamar Blue cell proliferation assay, MiaPaCa. The following applies: MIA PaCa-2. Type of assay: cell-based. Here is the method: as §2, §3, §4, §5, §6, §7, §8, §9, §10, §11
In assay [6] the target is T1, recombinant human CK2 (Homo sapiens, UniProt P68400).
T1 construct: purchased Upstate
T1 sequence (P68400 whole entry): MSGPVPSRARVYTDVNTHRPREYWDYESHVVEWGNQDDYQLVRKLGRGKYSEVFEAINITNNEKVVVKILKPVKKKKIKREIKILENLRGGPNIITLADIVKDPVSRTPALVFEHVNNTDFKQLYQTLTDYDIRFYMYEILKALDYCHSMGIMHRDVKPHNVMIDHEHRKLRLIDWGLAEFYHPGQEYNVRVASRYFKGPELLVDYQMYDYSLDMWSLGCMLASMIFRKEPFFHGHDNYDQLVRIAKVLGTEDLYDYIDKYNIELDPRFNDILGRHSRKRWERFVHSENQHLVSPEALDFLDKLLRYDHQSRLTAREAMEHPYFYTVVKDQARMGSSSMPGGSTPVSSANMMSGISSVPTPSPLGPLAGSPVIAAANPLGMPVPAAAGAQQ
T1 sequence (P67870 whole entry partner): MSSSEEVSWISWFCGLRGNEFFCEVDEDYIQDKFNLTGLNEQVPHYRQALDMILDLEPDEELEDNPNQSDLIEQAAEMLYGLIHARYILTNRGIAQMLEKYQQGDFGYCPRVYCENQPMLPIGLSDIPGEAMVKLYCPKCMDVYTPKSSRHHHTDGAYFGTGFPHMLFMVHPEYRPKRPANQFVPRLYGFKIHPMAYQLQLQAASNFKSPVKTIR
The assay can be described thus: cell-free CK2 assay. Type of assay: biochemical. Put shortly:
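Recombinant human CK2 (25 ng) phosphorylated peptide RRRDDDSDDD (1 mM stock) in MOPS pH 7.2 buffer with vanadate and EGTA, started with 75 micromolar ATP stock spiked with [γ-33P]ATP, 10 minutes at 30 degrees C. Phosphoric acid-quenched peptide was captured on phosphocellulose and counted by scintillation.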

Assay [7] relates to BxPC3 human pancreatic adenocarcinoma cells. In words: Alamar Blue cell proliferation assay, BxPC3. Format: cell-based. The following applies: BXPC-3. Here is the method:
as §2, §3, §4, §5, §6, §7, §8, §9, §10, §11

For assay [8], the system named is MDA-MB45. In words: Alamar Blue cell proliferation assay, MDA-MB45. Format: cell-based. Here is the method: as §2, §3, §4, §5, §6, §7, §8, §9, §10, §11
For assay [9], the target named is T2, FLT3 (Homo sapiens, UniProt P36888).
T2 sequence (P36888 27-993): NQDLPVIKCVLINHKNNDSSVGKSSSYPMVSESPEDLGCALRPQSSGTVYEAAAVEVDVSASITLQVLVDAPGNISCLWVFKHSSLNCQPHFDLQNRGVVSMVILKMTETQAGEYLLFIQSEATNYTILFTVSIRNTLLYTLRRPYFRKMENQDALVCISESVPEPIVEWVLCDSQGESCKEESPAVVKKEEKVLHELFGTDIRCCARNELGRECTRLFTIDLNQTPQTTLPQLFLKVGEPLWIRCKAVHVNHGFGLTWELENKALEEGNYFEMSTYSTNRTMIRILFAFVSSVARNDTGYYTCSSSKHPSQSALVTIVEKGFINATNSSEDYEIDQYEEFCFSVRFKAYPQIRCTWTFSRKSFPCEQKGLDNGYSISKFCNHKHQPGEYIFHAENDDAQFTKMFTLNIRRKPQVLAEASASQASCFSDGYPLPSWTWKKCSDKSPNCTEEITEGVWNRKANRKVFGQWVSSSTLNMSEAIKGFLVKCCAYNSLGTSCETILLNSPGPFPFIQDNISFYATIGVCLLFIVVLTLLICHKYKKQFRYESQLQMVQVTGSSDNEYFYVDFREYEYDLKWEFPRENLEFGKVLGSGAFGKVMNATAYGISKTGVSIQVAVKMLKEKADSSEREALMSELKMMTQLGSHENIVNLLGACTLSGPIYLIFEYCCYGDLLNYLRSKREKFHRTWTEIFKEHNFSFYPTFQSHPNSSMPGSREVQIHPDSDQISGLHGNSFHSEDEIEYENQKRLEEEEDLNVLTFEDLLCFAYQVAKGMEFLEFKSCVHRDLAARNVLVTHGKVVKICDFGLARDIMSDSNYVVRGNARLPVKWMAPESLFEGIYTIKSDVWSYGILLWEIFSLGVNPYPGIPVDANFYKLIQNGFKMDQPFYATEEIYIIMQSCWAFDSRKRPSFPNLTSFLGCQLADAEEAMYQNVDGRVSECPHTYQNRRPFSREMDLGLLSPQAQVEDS
In words: FLT3 inhibition. Type of assay: biochemical.

The target in assay [10] is recombinant human PIM2 (Homo sapiens, UniProt Q9P1W9). The assay can be described thus: PIM-2 kinase assay. Format: biochemical. In outline: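 Radiometric filter-binding assay: 4 ng recombinant human PIM2 in MOPS pH 7.0 buffer with test compound in DMSO, started with 75 uM ATP stock (containing [γ-33P]ATP and MgCl2) and 1 mM RSRSSYPAGT peptide stock. Reaction run 10 min at 30 °C, stopped with phosphoric acid, and phosphopeptide captured on phosphocellulose and counted by scintillation.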
Sequence of recombinant human PIM2 (Q9P1W9 whole entry): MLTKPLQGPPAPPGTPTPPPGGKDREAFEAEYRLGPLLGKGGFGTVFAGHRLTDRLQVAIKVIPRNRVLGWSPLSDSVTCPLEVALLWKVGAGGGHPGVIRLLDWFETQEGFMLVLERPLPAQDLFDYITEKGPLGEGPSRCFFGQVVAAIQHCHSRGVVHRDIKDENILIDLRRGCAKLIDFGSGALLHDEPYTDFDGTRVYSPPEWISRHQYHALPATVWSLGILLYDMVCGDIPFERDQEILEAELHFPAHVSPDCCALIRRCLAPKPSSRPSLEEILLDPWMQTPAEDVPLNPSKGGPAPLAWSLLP

Assay [11] relates to SUM-149PT. The assay can be described thus: Alamar Blue cell proliferation assay, SUM-149PT. Format: cell-based. The note with it: Homo sapiens, SUM149PT. As to the method: as §2, §3, §4, §5, §6, §7, §8, §9, §10, §11
Assay [12] relates to PC-3 human prostatic cancer cells. In words: Alamar Blue cell proliferation assay, PC3. Type of assay: cell-based. As to the method: as §2, §3, §4, §5, §6, §7, §8, §9, §10, §11
In assay [13] the test system is leukemic cells from AML patients. The note with it: cited from earlier work.
The test system of assay [14] is MOLM-13 (AML) xenograft. The note with it: MOLM-13 (AML) xenograft model; cited from earlier work.
The subject of assay [15] is MV-4-11 (AML) xenograft. The note with it: MV-4-11 (AML) xenograft model; cited from earlier work.
Setting [16] is: 15 μM ATP, read-out: PIM1: IC50 (15 μM ATP).

Sequence of recombinant PIM-1 (P11309 whole entry): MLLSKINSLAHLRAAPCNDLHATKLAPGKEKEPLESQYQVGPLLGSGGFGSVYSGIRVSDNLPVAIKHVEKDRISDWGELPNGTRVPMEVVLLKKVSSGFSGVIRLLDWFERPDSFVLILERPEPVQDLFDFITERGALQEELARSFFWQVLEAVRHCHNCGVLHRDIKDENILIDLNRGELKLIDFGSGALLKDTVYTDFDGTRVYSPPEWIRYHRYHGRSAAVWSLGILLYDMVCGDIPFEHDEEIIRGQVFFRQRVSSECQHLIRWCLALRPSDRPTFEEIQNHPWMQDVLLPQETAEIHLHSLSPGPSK

With `Clc1ccc(Nc2nc3cc(-c4nnn[nH]4)ccc3n3cccc23)cc1`, the IC50 in assay [1] (Table 4) was above 10 µM; in assay [2] (K562, Table 4), above 10 µM; in assay [3] it was above 10 µM; in [4] (setting [16]), 0.576 µM; in [5], above 10 µM. The inhibition at 0.5 µM in [4] came to 57.1%.

Turning to `Clc1ccccc1Nc1nc2c(-c3nnc[nH]3)cccc2n2cccc12`, the 50% inhibitory concentration (IC50) was below 5 µM in assay [1] (Table 5); below 0.1 µM in [6]; below 10 µM in [7]; below 5 µM in assay [8]; above 10 µM in assay [2] (K562, Table 5); above 10 µM in assay [9]. For the same compound, the concentration for half-maximal inhibition (IC50) is below 0.1 µM in [4] (Table 5, read-out: PIM1 IC50); below 0.1 µM in assay [10]; below 5 µM in [11].

For `O=C(O)c1ccc2c(c1)nc(Nc1ccc(F)c(Cl)c1)c1cccn12`, the IC50 was 6.91 µM in assay [1] (Table 4); 10.7 µM in assay [2] (K562, Table 4); 12 µM in assay [3]; 0.071 µM in [4] (setting [16]); above 10 µM in [5]; above 10 µM in [12]. Moreover, the inhibition at 0.5 µM in [4] is 91.4%.

`Fc1ccc(Nc2nc3cc(-c4nnn[nH]4)ccc3n3cccc23)cc1Cl`: the 50% inhibitory concentration (IC50) is 1.21 µM in assay [1] (Table 4); above 10 µM in assay [2] (K562, Table 4); above 10 µM in assay [3]; 0.504 µM in [4] (setting [16]); above 10 µM in [5]. For the same compound, the inhibition at 0.5 µM in assay [4] is 50.5%.

On to `O=C(O)c1ccc2c(c1)nc(NCC(F)(F)F)c1cccn12`, for which the IC50 is above 10 µM in assay [1] (Table 4); above 10 µM in assay [2] (K562, Table 4); above 10 µM in [3]; 0.419 µM in assay [4] (setting [16]); above 10 µM in [5]; above 30 µM in assay [12]. For the same compound, the inhibition at 0.5 µM in assay [4] was determined as 52.9%.

Turning to `Fc1ccc(Nc2nc3c(-c4nnc[nH]4)cccc3n3cccc23)c(F)c1`, the IC50 in [1] (Table 5) is below 5 µM; in [6], below 0.1 µM; in [7], 10.2 µM; in [8] it was 15.7 µM; in assay [2] (K562, Table 5), below 10 µM; in assay [4] (Table 5, read-out: PIM1 IC50) it was below 0.1 µM. For the same compound, the IC50 in assay [10] is below 0.1 µM; in [11] it was 23.3 µM.

Turning to `CN(C)C[C@@H]1CCn2cc(c3ccccc32)C2=C(C(=O)NC2=O)c2cn(c3ccccc23)CCO1` [Ly5333′531], the “effect on cell growth and cell death” value in assay [13] was “suppressed cell growth and induced cell death”.

Consider `Fc1ccccc1Nc1nc2c(-c3nnc[nH]3)cccc2n2cccc12`, for which the IC50 is below 5 µM in [1] (Table 5); below 0.1 µM in [6]; above 30 µM in assay [7]; 28.4 µM in assay [8]; below 10 µM in assay [2] (K562, Table 5); below 0.1 µM in assay [4] (Table 5, read-out: PIM1 IC50). The values for the IC50 in [10] and in assay [11] were below 0.1 µM and 22.8 µM, respectively.

Take `Oc1cccc(Nc2nc3c(-c4nnc[nH]4)cccc3n3cccc23)c1`: the IC50 was below 5 µM in [1] (Table 5); below 1 µM in assay [6]; at least 30 µM in assay [7]; 28 µM in assay [8]; above 10 µM in assay [2] (K562, Table 5); below 0.1 µM in assay [4] (Table 5, read-out: PIM1 IC50). Also, the IC50 in assay [10] is below 0.1 µM; in assay [11], above 30 µM.

Regarding `Clc1cccc(Nc2nc3c(-c4nnc[nH]4)cccc3n3cccc23)c1`, the IC50 in [1] (Table 5) is below 5 µM; in assay [6], below 0.1 µM; in [7] it was at least 30 µM; in assay [8], 16 µM; in assay [2] (K562, Table 5) it was above 10 µM; in [4] (Table 5, read-out: PIM1 IC50), below 0.1 µM. Moreover, the concentration for half-maximal inhibition (IC50) was below 0.1 µM in assay [10] and 21 µM in assay [11].

Regarding `CN1CCC(CNc2ccc3ncc(-c4cccc(OC(F)(F)F)c4)n3n2)CC1` [SGI-1776], the tumor regression entry in assay [14] and in assay [15] was “significant tumor regression” throughout.

The IC50 is the concentration that gives 50% inhibition.
